Key:
Test in all cases: relative viability (nuclei count vs DMSO), 5 days (fraction); higher = more cells survive
XMD13-2 + Trametinib = compound: C1CC1C(=O)NC2=NNC3=C2C=CC(=C3)C4=CC(=CC=C4)C(=O)NC5CC5 [XMD13-2] + CC(=O)Nc1cccc(-n2c(=O)n(C3CC3)c(=O)c3c(Nc4ccc(I)cc4F)n(C)c(=O)c(C)c32)c1 [Trametinib] (partner 0.02 µM)
How it was run: (§1)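 The day after seeding in 1536-well plates, lung cancer cell lines were treated by pin tool with a single drug, or with a fixed anchor-drug dose together with five library-drug doses (not always all listed) in √10 steps. After 5 days, a combined fix-and-stain solution (final 0.05% Triton X-100, 1% formaldehyde, 1 ug/ml Hoechst) was added. Nuclei counted on 4× images gave relative viability as treated counts over vehicle counts, reported as the median of duplicate plates.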

XMD13-2 + Palbociclib = compound: C1CC1C(=O)NC2=NNC3=C2C=CC(=C3)C4=CC(=CC=C4)C(=O)NC5CC5 [XMD13-2] + CC(=O)c1c(C)c2cnc(Nc3ccc(N4CCNCC4)cn3)nc2n(C2CCCC2)c1=O [Palbociclib] (partner 0.5 µM)
How it was run: as §1

XMD13-2 + Phenformin = compound: C1CC1C(=O)NC2=NNC3=C2C=CC(=C3)C4=CC(=CC=C4)C(=O)NC5CC5 [XMD13-2] + N=C(N)NC(=N)NCCc1ccccc1 [Phenformin] (partner 250 µM)
How it was run: as §1

XMD13-2 + Pemetrexed = compound: C1CC1C(=O)NC2=NNC3=C2C=CC(=C3)C4=CC(=CC=C4)C(=O)NC5CC5 [XMD13-2] + Nc1nc2[nH]cc(CCc3ccc(C(=O)N[C@@H](CCC(=O)O)C(=O)O)cc3)c2c(=O)[nH]1 [Pemetrexed] (partner 0.2 µM)
How it was run: as §1

Cell Line | relative viability (XMD13-2 + Trametinib; first compound 0.05 µM) | relative viability (XMD13-2 + Trametinib; first compound 0.1581 µM) | relative viability (XMD13-2 + Trametinib; first compound 0.5 µM) | relative viability (XMD13-2 + Trametinib; first compound 1.581 µM) | relative viability (XMD13-2 + Trametinib; first compound 5 µM) | relative viability (XMD13-2 + Palbociclib; first compound 0.05 µM) | relative viability (XMD13-2 + Palbociclib; first compound 0.1581 µM) | relative viability (XMD13-2 + Palbociclib; first compound 0.5 µM) | relative viability (XMD13-2 + Palbociclib; first compound 1.581 µM) | relative viability (XMD13-2 + Palbociclib; first compound 5 µM) | relative viability (XMD13-2 + Phenformin; first compound 0.05 µM) | relative viability (XMD13-2 + Phenformin; first compound 0.1581 µM) | relative viability (XMD13-2 + Phenformin; first compound 0.5 µM) | relative viability (XMD13-2 + Phenformin; first compound 1.581 µM) | relative viability (XMD13-2 + Phenformin; first compound 5 µM) | relative viability (XMD13-2 + Pemetrexed; first compound 0.05 µM) | relative viability (XMD13-2 + Pemetrexed; first compound 0.1581 µM) | relative viability (XMD13-2 + Pemetrexed; first compound 0.5 µM) | relative viability (XMD13-2 + Pemetrexed; first compound 1.581 µM) | relative viability (XMD13-2 + Pemetrexed; first compound 5 µM)
COR-L 105 | 0.423 | 0.466 | 0.432 | 0.476 | 0.393 | 0.405 | 0.412 | 0.4 | 0.404 | 0.42 | 0.589 | 0.532 | 0.455 | 0.506 | 0.452 | 1.01 | 1.26 | 1.04 | 0.98 | 1.26
LCLC-97TM1 | 0.225 | 0.198 | 0.217 | 0.17 | 0.179 | 0.217 | 0.284 | 0.229 | 0.219 | 0.182 | 0.441 | 0.441 | 0.425 | 0.492 | 0.459 | 0.178 | 0.155 | 0.166 | 0.185 | 0.159
NCI-H520 | 0.7 | 0.7 | 0.723 | 0.563 | 0.396 | 0.256 | 0.239 | 0.213 | 0.203 | 0.188 | 0.529 | 0.604 | 0.591 | 0.529 | 0.499 | 0.704 | 0.636 | 0.665 | 0.573 | 0.442
NCI-H1993 | 0.563 | 0.504 | 0.508 | 0.507 | 0.539 | 0.641 | 0.484 | 0.722 | 0.606 | 0.547 | 0.456 | 0.493 | 0.55 | 0.553 | 0.566 | 0.62 | 0.619 | 0.613 | 0.643 | 0.555
NCI-H1437 | 0.598 | 0.49 | 0.482 | 0.498 | 0.417 | 0.297 | 0.299 | 0.335 | 0.327 | 0.255 | 0.297 | 0.305 | 0.299 | 0.311 | 0.341 | 0.336 | 0.326 | 0.343 | 0.323 | 0.329
LC-2-ad | 0.934 | 0.938 | 0.961 | 0.936 | 0.93 | 0.504 | 0.477 | 0.538 | 0.486 | 0.47 | 0.586 | 0.584 | 0.669 | 0.546 | 0.528 | 0.285 | 0.26 | 0.282 | 0.303 | 0.256
HARA | 0.667 | 0.948 | 1.16 | 0.776 | 0.674 | 0.265 | 0.313 | 0.25 | 0.273 | 0.245 | 0.477 | 0.438 | 0.474 | 0.44 | 0.485 | 0.224 | 0.273 | 0.269 | 0.208 | 0.323
NCI-H650 | 1.37 | 1.02 | 1.05 | 0.917 | 0.991 | 0.321 | 0.335 | 0.33 | 0.305 | 0.31 | 0.438 | 0.544 | 0.534 | 0.425 | 0.488 | 0.938 | 0.995 | 1.04 | 0.772 | 0.958

From the supplement of paper PMC10307832
